Data reported in patent US5696089A, “Histidine substituted growth hormone releasing factor analogs” (Roche Vitamins Inc., priority 1995, dated 1997).
Where a SMILES comes first, the peptide text is derived from it. Where no end group is shown, it is not given here. The star is where a group is joined. Desaminohistidyl = O=C(CCc1c[nH]cn1)*

What was measured:
[1] = tested on: rat pituitary cells; assay type: cell-based
Experimental: The biological activity of the novel peptides were compared with that of a synthetic standard of the natural sequence of GRF(1-44)-NH2 which was isolated from a human pancreatic tumor of an individual suffering from acromegaly (Salk Institute standard hp-GRF-NH2 (NL-A-10)). The assay for biological activity, which is based on the ability to stimulate production of growth hormone in rat pituitary cells in tissue culture, was performed in the following manner. Pituitaries from 30-40 male Sprague-Dawley rats (175 g) were removed aseptically after decapitation. The anterior lobes were collected, washed 3 times in sterile Hepes buffer (0.025M)(pH 7.35) and dispersed at 37° C. in 20-30 ml Hepes buffer (pH 7.35) containing collagenasa (4 mg per ml) and Dispase (Protease grande II, 2 mg per ml). After gentle 80 min. vortexing and trituration by Pasteur pipette, the dispersed cells were separated by centrifugation (150×g, 4 min.) and re-suspended in Hepes buffer containing neuraminidase (4 μg/ml), and 200 μg/ml ethylenediaminetetraacetic acid (EDTA) disodium salt pH 7.35, for 10 min. The cells were washed twice with plating medium and plated on multiwell-plates (1.5×10^5 cells per ml) using the following defined medium: F-12/DMEM/BGJ(6:3:1) (Gibco: 430-1700/430-1600/320-2591) with 2 g BSA/1., 2.38 g Hepes/1., 50 mg Gentamycin/1 (Schering Co.). The medium in each well was supplemented either with the novel peptide or natural GRF(1-44)-NH2 at concentrations ranging from 3.1 to 200 fmol. per ml. of medium. Control wells contained no supplement. Plating was done with this medium added with 2% fetal calf serum to ensure rapid fixation of the cells. On the fourth day the cells were washed twice with the defined medium without fetal calf serum. Finally 900 μl of defined medium was added to each well plus 100 μl of the same medium containing each individual treatment, in triplicate. After 3 hours of incubation the medium was collected and diluted as required to conduct radioimmuno- assays (RIAs) for rat growth hormone. RIAs were conducted using Sinha's anti-murine GH immune serum and procedures according to the National Pituitary Agency using protein A to precipitate antibody antigen complex.

[2] = In vitro plasma stability by porcine plasma incubation at 37° C.; assay type: in vitro ADME; conditions: pooled porcine plasma, 100 μg/ml, HPLC after SEP-PAK extraction
Experimental: In vitro plasma stability of GRF analogs were determined by porcine plasma incubation at 37° C. Pooled porcine plasma was collected from control pigs and stored at -20° C. GRF analogs of interest were prepared as discussed above. The plasma was first thawed and centrifuged at 3000 rpm for 20 minutes at 4° C. The plasma was then placed in a shaker bath at a temperature of 37° C. and allowed to equilibrate for 10 minutes. GRF analogs were dissolved in water containing 0.1% TFA at a concentration of 2 μg/μl. As soon as the initial equilibration was completed, an analog was added into the plasma sample to a final concentration of 100 μg/ml. Immediately after the addition of a GRF analog, a 1 ml aliquot of plasma sample was withdrawn and acidified with 0.2 ml of 0.1M TFA/H2 O and kept at 0° C. for later solid phase extraction. The remaining plasma samples were incubated in the water bath and 1 ml aliquots were withdrawn at different time periods and acidified by the same procedure described above.
Plasma samples were extracted with SEP-PAK octadecyl columns (Waters Associates). The column cartridge was washed with 2 ml 80% acetic acid followed by 4 ml of 0.01M TFA. After the plasma sample was loaded, the column was washed with 3 ml of 0.1M TFA to remove the excess unbound biological material. The solvent remaining in the cartridges was forced out by two passes of air from a 10 ml syringe. The bound material was then eluted with 80% acetic acid and 3 ml eluate was collected for chromatographic analysis. Two high performance liquid chromatography systems were used. System A: Instrumentation--Perkin-Elmer Series 4 liquid chromatography microprocessor-controlled solvent delivery system, Waters intelligent sample processor (WISP) model 710 (Waters Associates), and a Hewlett-Packard 1040M Diode Assay Detection System. Column--Delta Pak C18, 3.5×150 mm, 5 μm spherical (Nihon Waters Ltd.). Mobile phase-(A) 0.1% TFA in H2 O, (B) 0.1% TFA in 95% acetonitrile and 5% H2 O. Gradient was 34-50% (B) in 60 minutes, flow rate 1 ml/minute, and the detection was at 215 nm. System B: Instrumentation--Waters 600 multi-solvent delivery system, WISP model 712 and LDC spectromonitor III. Column--Vydac 201TP54, C18 4.6×250 mm, 10 μm (The Separations Group). Mobile phase--same as in System A. Gradient max 30% (B) isocratic for 10 minutes, followed by 30-50% (B) gradient for 60 minutes, flow rate was 1 ml/minute, and the detection was at 215 nm. Amino acid analysis was done as described above. Results of plasma half life are found in Table 2.

| Compound | Potency of GRF Analogs Relative to GRF(1-44)-NH2 [1] | Half Life (t1/2) [2] [h] |
| --- | --- | --- |
| CC[C@H](C)[C@H](NC(=O)[C@H](C)NC(=O)[C@H](CC(=O)O)NC(=O)[C@H](C)NC(=O)[C@@H](N)Cc1ccc(O)cc1)C(=O)N[C@@H](Cc1ccccc1)C(=O)N[C@H](C(=O)N[C@@H](CC(N)=O)C(=O)N[C@@H](CO)C(=O)N[C@@H](Cc1ccc(O)cc1)C(=O)N[C@@H](CCCNC(=N)N)C(=O)N[C@@H](CCCCN)C(=O)N[C@H](C(=O)N[C@@H](CC(C)C)C(=O)NCC(=O)N[C@@H](CCC(N)=O)C(=O)N[C@@H](CC(C)C)C(=O)N[C@@H](CO)C(=O)N[C@@H](C)C(=O)N[C@@H](CCCNC(=N)N)C(=O)N[C@@H](CCCCN)C(=O)N[C@@H](CC(C)C)C(=O)N[C@@H](CC(C)C)C(=O)N[C@@H](CCC(N)=O)C(=O)N[C@@H](CC(=O)O)C(=O)N[C@H](C(=O)N[C@@H](CCSC)C(=O)N[C@@H](CO)C(=O)N[C@@H](CCCNC(=N)N)C(N)=O)[C@@H](C)CC)C(C)C)[C@@H](C)O [GRF(1-29)-NH2, reference compound] | 0.71 | 0.217 |
| HVDAIFTNSYRKVLAQLSARKLLQDIMSR-NH2 [[His^1,Val^2,Ala^15]-GRF(1-29)-NH2] | 2.58 | 1 |
| YADAIFTNSYRKVLAQLSARKLLQDIMSR-NH2 [[Ala^15]-GRF(1-29)-NH2, reference compound] | – | 0.283 |
| HIDAIFTNSYRKVLAQLSARKLLQDIMSR-NH2 [[His^1,Ile^2,Ala^15]-GRF(1-29)-NH2] | 1.24 | – |
| HVDAIFTNSYRKVLAQLSARKLLQDILSRQQG [[His^1,Val^2,Ala^15,Leu^27]-GRF(1-32)-OH] | 2.40 | 1 |
| CC[C@H](C)[C@H](NC(=O)[C@H](C)NC(=O)[C@H](CC(=O)O)NC(=O)[C@@H](NC(=O)CCc1c[nH]cn1)C(C)C)C(=O)N[C@@H](Cc1ccccc1)C(=O)N[C@H](C(=O)N[C@@H](CC(N)=O)C(=O)N[C@@H](CO)C(=O)N[C@@H](Cc1ccc(O)cc1)C(=O)N[C@@H](CCCNC(=N)N)C(=O)N[C@@H](CCCCN)C(=O)N[C@H](C(=O)N[C@@H](CC(C)C)C(=O)N[C@@H](C)C(=O)N[C@@H](CCC(N)=O)C(=O)N[C@@H](CC(C)C)C(=O)N[C@@H](CO)C(=O)N[C@@H](C)C(=O)N[C@@H](CCCNC(=N)N)C(=O)N[C@@H](CCCCN)C(=O)N[C@@H](CC(C)C)C(=O)N[C@@H](CC(C)C)C(=O)N[C@@H](CCC(N)=O)C(=O)N[C@@H](CC(=O)O)C(=O)N[C@H](C(=O)N[C@@H](CCSC)C(=O)N[C@@H](CO)C(=O)N[C@@H](CCCNC(=N)N)C(N)=O)[C@@H](C)CC)C(C)C)[C@@H](C)O [[desNH2 His^1,Val^2,Ala^15]-GRF(1-29)-NH2] (Desaminohistidyl-VDAIFTNSYRKVLAQLSARKLLQDIMSR-NH2) | 1.21 | – |
| CC[C@H](C)[C@H](NC(=O)[C@H](C)NC(=O)[C@H](CC(=O)O)NC(=O)[C@H](C)NC(=O)[C@@H](N)Cc1ccc(O)cc1)C(=O)N[C@@H](Cc1ccccc1)C(=O)N[C@H](C(=O)N[C@@H](CC(N)=O)C(=O)N[C@@H](CO)C(=O)N[C@@H](Cc1ccc(O)cc1)C(=O)N[C@@H](CCCNC(=N)N)C(=O)N[C@@H](CCCCN)C(=O)N[C@H](C(=O)N[C@@H](CC(C)C)C(=O)NCC(=O)N[C@@H](CCC(N)=O)C(=O)N[C@@H](CC(C)C)C(=O)N[C@@H](CO)C(=O)N[C@@H](C)C(=O)N[C@@H](CCCNC(=N)N)C(=O)N[C@@H](CCCCN)C(=O)N[C@@H](CC(C)C)C(=O)N[C@@H](CC(C)C)C(=O)N[C@@H](CCC(N)=O)C(=O)N[C@@H](CC(=O)O)C(=O)N[C@H](C(=O)N[C@@H](CCSC)C(=O)N[C@@H](CO)C(=O)N[C@@H](CCCNC(=N)N)C(=O)N[C@@H](CCC(N)=O)C(=O)N[C@@H](CCC(N)=O)C(=O)NCC(=O)N[C@@H](CCC(=O)O)C(=O)N[C@@H](CO)C(=O)N[C@@H](CC(N)=O)C(=O)N[C@@H](CCC(N)=O)C(=O)N[C@@H](CCC(=O)O)C(=O)N[C@@H](CCCNC(=N)N)C(=O)NCC(=O)N[C@@H](C)C(=O)N[C@@H](CCCNC(=N)N)C(=O)N[C@@H](C)C(=O)N[C@@H](CCCNC(=N)N)C(=O)N[C@@H](CC(C)C)C(N)=O)[C@@H](C)CC)C(C)C)[C@@H](C)O [GRF(1-44)-NH2, reference compound] | 1.00 | – |
| YVDAIFTNSYRKVLAQLSARKLLQDILSRQQG [[Val^2,Ala^15,Leu^27]-GRF(1-32)-OH] | – | 1.17 |
